Series [1] can be described thus: Treatment toxicity by mice body weights. The conditions noted are these: 10 mg/kg/day s.c. during drug administration. It counts as in vivo. The protocol: Animals. CD1 nude mice (males, 6 weeks old; Charles River, Calco, Italy) received intraperitoneal (i.p.) injections of 2×10^6 luciferase transduced REN cells in 0.5 mL of RPMI medium. After anesthetization and i.p. injections of 0.3 mL of 15 mg/mL D-luciferin, tumor dimension and localization of luminescent cells was monitored using the In Vivo Imaging System (IVIS) series (Xenogen Corporation, Hopkinton, Mass., USA). Regions of interest were identified around the tumor sites and were quantified as total photon counts using Living Image software (Xenogen Corporation). The values of tumor sizes were obtained, subtracting luminescence signals of each weekly measurement by the average of all animals within a treatment group on the 15th day after inoculation (day when treatment started). To evaluate treatment toxicity, mice were weighed at the start and end of treatments. Mice were killed and necropsied after 20 days of treatment. In vivo experiments were approved by Istituto Scientifico Tumori (Genoa, Italy) ethical committee and conform to the relevant regulatory standards. Mice were maintained and handled under aseptic conditions, and were allowed access to food and water ad libitum.

A further series relates to REN cells. Briefly: Proliferation assay (Trypan blue viable cell count; wash-off and add-on experiments) in REN cells. The series is classed as cell-based, human. The protocol:
Cells were seeded at a density of 10×10^4 cells/well in 6-well plates in RPMI medium supplemented with 10% FBS, 100 μg/ml streptomycin and 10 μg/ml penicillin and incubated over-night at 37° C. in a humidified environment containing 5% CO2 to allow adherence. Following treatment cells were trypsinized and stained with Trypan blue. The number of cells considered viable (unstained cells) was counted in a Bürker haemocytometer within 5 minutes after staining.
Control cultures were maintained in normal growth medium without added drug. The number of viable cells was determined as described for the proliferation assay.
In the add-on experiments the second drug was added directly to the cell culture medium without wash-off of the first drug. […] Control cultures were maintained in normal growth medium without added drug. The number of viable cells was determined as described for the proliferation assay.

The next series deals with MSTO-211H/ERβ cells. The experiment in a line: Proliferation assay in MSTO-211H cells transfected with ERβ expression vector. Particulars: 10 nM, 24 and 48 hours; transient transfection with ERβ expression vector. It counts as cell-based. The source says:
The epithelioid MPM derived REN cell line was isolated, characterized and provided by Dr. Albelda S. M. (University of Pennsylvania, Philadelphia; PA, USA). The biphasic MSTO-211H and the mesothelial MET5A cell lines were obtained from the Istituto Scientifico Tumori (IST) Cell-bank, Genoa, Italy; the MMB and MMP cell lines have been derived from pleural effusions of patients with MPM and stabilized in culture (Cacciotti P, et al., Proc Natl Acad Sci USA 2001; 98:12032-7; Pinton G., et al, Cancer Res 2009; 69:4598-604); the H2596 cell line was produced by Dr. H. I. Pass from surgical specimens derived from patients with resected MPM (Pass H. I., et al., Ann Thorac Surg 1995; 59(4):835-44). Cells were grown in RPMI medium supplemented with 10% FBS, […] streptomycin and 10 μg/ml penicillin at 37° C. in a humidified environment containing 5% CO2. Mycoplasma infection was excluded by the use of Mycoplasma Plus™ PCR Primer Set kit from Stratagene (La Jolla, Calif., USA). […]
Cells were seeded at a density of 10×10^4 cells/well in 6-well plates in RPMI medium supplemented with 10% FBS, 100 μg/ml streptomycin and 10 μg/ml penicillin and incubated over-night at 37° C. in a humidified environment containing 5% CO2 to allow adherence. […] The number of cells considered viable (unstained cells) was counted in a Bürker haemocytometer within 5 minutes after staining.

The test system of another series is AKT phosphorylation. Briefly: Western blot of AKT phosphorylation in REN cells. Particulars: 10 nM 2 hours pre-treatment, ± cisplatin. The series is classed as cell-based, human. The method, then:
Cells were extracted with 1% NP-40 lysis buffer (1% NP-40, 150 mM NaCl, 50 mM Tris-HCl pH 8.5 mM EDTA, 10 mM NaF, 10 mM Na4P2O7, 0.4 mM Na3VO4) with freshly added protease inhibitors (10 μg/ml leupeptin, 4 μg/ml pepstatin and 0.1 Unit/ml aprotinin). For protein extraction from tissues, ˜100 mg of each sample were homogenized, using a Potter-Elvehjem homogenizer device, in 1% NP-40 lysis buffer. Lysates were centrifuged at 13.000×g for 10 minutes at 4° C. and the supernatants were collected and assayed for protein concentration with the Bio-Rad protein assay method.
Proteins were separated by SDS-PAGE under reducing conditions. Following SDS-PAGE, proteins were transferred to nitrocellulose, reacted with specific antibodies and then detected with peroxidase-conjugate secondary antibodies and chemioluminescent ECL reagent. Densitometric analysis was performed using the GS 250 Molecular Image (Bio-Rad).
Levels of PARP1, cleaved PARP1, AKT and phosphorylated AKT in REN cells treated for 24 hours with cisplatin (25, 50 and 100 μM) or pre-treated 2 hours with Compound (I) (10 nM) followed by wash-off and continued growth in normal medium±cisplatin (25, 50 and 100 μM), for an additional 24 hours were also determined by Western blot analysis and relative densitometry. […] PARP1 cleavage was analysed as it is an indicator of apoptotic cell death. […]
(In general: In western blotting, separated proteins are transferred to a membrane and probed.)

With `Cc1noc(C)c1-c1c(/C(N)=N/O)c2ccccc2n1-c1ccc(O)cc1` [Compound (I)], the “toxicity assessed by changes of mice body weights” value in series [1] is “not to be toxic”. The “anti-proliferative effect, pre-treatment then 20 μM cisplatin” value in the series with REN cells (10 nM 2 hours, wash-off, 20 μM cisplatin for additional 24 hours) is listed as “as efficacious as 100 μM cisplatin alone”. The “inhibitory effect on cell growth and viability, pre-treatment then cisplatin/pemetrexed” value in the series on REN cells (10 nM 2 hours, wash-off, cisplatin 100 μM and pemetrexed 22 μM for additional 24 hours) was “strong synergistic inhibitory effect on cell growth and viability”. The “inhibitory effect on cell growth and viability, pre-treatment then cisplatin” value in the series with REN cells (10 nM 2 hours, wash-off, cisplatin 100 μM for additional 24 hours) is “strong synergistic inhibitory effect on cell growth and viability”. Also, in the series on REN cells (10 nM 2 hours, wash-off, cisplatin for additional 24 hours), the “anti-proliferative effect, pre-treatment then cisplatin 20-100 μM” value was “most efficacious anti-proliferative effect was observed when Compound (I) pre-treatment was combined with the highest concentration of cisplatin (100 μM)”. Also, the “enhancement of anti-proliferative effect of pemetrexed” value with REN cells (10 nM 2 hours, wash-off, pemetrexed 5-22 μM for additional 24 hours) is given as “No enhanced anti-proliferative effect”. Besides, the “synergy when cisplatin is given first (reverse order)” value in the series on REN cells (10 nM Compound (I) added 2, 4, 8, 12 hours after start of 100 μM cisplatin, 24 hours) is “did not result in synergistic inhibition of cell growth and viability”. Also, in the series with REN cells (10 nM Compound (I) added after 100 μM cisplatin, 24 hours), the “growth inhibition versus single agents, cisplatin given first” value is “greater growth inhibition than cells treated with only one of the agents”. The “inhibition of proliferation, REN cells” value with REN cells (10 nM single agent, 24 and 48 hours) was “significantly (p≤0.05) inhibited proliferation”. Moreover, the “growth inhibitory activity after brief exposure and wash-off” value in the series with REN cells (10 nM, 2 hours exposure, total incubation 24 hours) is “significantly (p≤0.05) increased growth inhibitory activity relative to 1 hour exposure and exposures longer than 8 hours”. Besides, the “enhancement of anti-proliferative effect of cisplatin, add-on experiment” value in the series on REN cells (100 μM cisplatin added 2, 4, 8, 12 hours after start of 10 nM Compound (I), 24 hours) was “greatest inhibitory effect obtained when adding cisplatin after 2 hours of Compound (I) pre-treatment”. The “concentration dependence of anti-proliferative effect after 2 hours pre-treatment” value in the series with REN cells (0.4, 2 and 10 nM, wash-off, 24-72 hours) is “largest anti-proliferative effect was observed with the highest Compound (I) concentration used”. The “duration of inhibitory effect on REN cell proliferation” value in the series on REN cells (2-hours pre-treatment with 0.4, 2 or 10 nM, wash-off, irrespective of concentration) is reported as “at least 24 hours”. Further, the “growth inhibition of REN cells” value in the series on REN cells (24 hours treatment, range 1-100 nM, versus untreated cells) is “significantly (p≤0.05) reduced cell growth and viability in a dose-dependent manner”. Besides, in the series with REN cells (REN cells, 24 hours, range 1-100 nM tested), the “dose of highest efficacy for growth inhibition” value is listed as 10 nM. Further, the “isobologram analysis of combination with cisplatin” value in the series on REN cells (analysis of Example 4(b) results (FIG. 4F)) was “synergistic effect”. For the same compound, the “inhibition of proliferation, MSTO-211H/ERβ cells” value in the series with MSTO-211H/ERβ cells is on record as “sensitized these cells to Compound (I)”. In addition, in the series on AKT phosphorylation, the “AKT phosphorylation in REN cells” value was “significantly reduced AKT phosphorylation both in the absence and in the presence of cisplatin”.

The record behind these values is patent publication US9974776B2, “Estrogen receptor beta agonists for use in treating mesothelioma” (Karo Pharma AB, priority 2013, dated 2018).
